# Source: PMC6941952, “A homogeneous bioluminescent immunoassay to probe cellular signaling pathway regulation” (Communications Biology, 2020)
# Test system: phospho-IκBα (Ser32)
# Assay: NanoBiT cell-based immunoassay, phosphorylated IκBα in MCF-7 cells
# Parameters: species or system human
# Settings: plate #2; for Subtract reagent background / Raw data: TNF
# Method: Prior to NanoBiT Cell-Based Immunoassay, 50,000 cells were seeded in 160 µl of complete growth media per well of a 96-well plate and incubated overnight. The cells were checked under microscope and it was determined that 50,000 cells per well in 96-well plate is under 90% confluency for all cells tested. If necessary, the cell culture media were replaced with serum-free media after the cells were stably adherent on the plate and incubated overnight. To treat cells with activators or inhibitors, medium was changed to 30 µl of medium containing inhibitors. If activation of a specific pathway is needed, the cells were stimulated with 10 µl of medium containing activators. To lyse the cells, 10 µl of lysis buffer containing 0.1% digitonin diluted in 1X immunoassay buffer with protease and phosphatase inhibitors was added and the plates were mixed vigorously for 20 min. Then, 50 µl of an antibody mix containing two primary antibodies against the target protein and NanoBiT detecting antibodies (0.3 µl each per well), diluted in 1X immunoassay buffer was added to the lysates. The plates were incubated at 23 °C for 90 min, followed by the addition of 25 µl of Nano-Glo® reagent consisting of Nano-Glo® Luciferase Assay Substrate mixed with 1X immunoassay buffer. Luminescence was measured using a plate-reading luminometer.
# In all, 50,000 MCF-7 cells were seeded in 160 µl complete growth medium per well of a 96-well plate and incubated overnight. Half of the cells were treated with 50 ng per ml TNFα and half with vehicle. Cells were lysed as described above and a mixture of NanoBiT secondary antibodies with primary antibodies at the matrix concentrations described in Fig. 2a were added. After 90 min incubation, the Nano-Glo® reagent was added to the reactions as described above and luminescence was measured using a plate-reading luminometer.
# Single dose or dose response inhibitor treatments were performed prior to activation of the pathways as follows. For IκBα, the cells were treated in 30 µl medium with IKK16 or MG132 for 60 min before the addition of 10 µl of DMEM containing appropriate concentration of TNFα. To measure phosphorylation of AKT or STAT3, the corresponding NanoBiT immunoassays were developed with MCF-7 or A431 cells, respectively, according the same scheme used to develop the IκBα assay using the primary antibodies for AKT and STAT3 described in the reagents section. For the AKT assay, MCF-7 cells were incubated overnight in phenol-red free DMEM medium (Gibco #21063-029) without serum. Treatment with LY294002 was performed in 30 µl medium and cells were incubated for 60 min before the addition of 1 µM Insulin. To measure STAT3 phosphorylation, A431 cells were incubated overnight in DMEM medium without serum. […] After addition of the stimulators, the cells were incubated for additional times as follows. IκBα phosphorylation and degradation analyses required both time courses and single time points as described in figures. […] The NanoBiT immunoassay protocol was followed as described above.
# All 96-well assay plates were read using a GloMax® 96 Microplate Luminometer from Promega. The instrument was set to 0.5 s integration time. In order to obtain net change of signal, the reagent background values (signal from the well containing all reagent except primary antibodies) were subtracted from the sample values. To plot and analyze the data, Microsoft Excel and GraphPad Prism® Software were used. IC50 values were determined by using a nonlinear regression fit to a sigmoidal dose response (variable slope).
# [1] = IkB Ab #2 75 ng/ml, P-IkB Ab #1 300 ng/ml
# [2] = IkB Ab #2 75 ng/ml, P-IkB Ab #1 600 ng/ml
# [3] = IkB Ab #2 75 ng/ml, P-IkB Ab #1 1200 ng/ml
# [4] = IkB Ab #2 150 ng/ml, P-IkB Ab #1 75 ng/ml
# [5] = IkB Ab #2 150 ng/ml, P-IkB Ab #1 150 ng/ml
# [6] = IkB Ab #2 150 ng/ml, P-IkB Ab #1 300 ng/ml
# [7] = IkB Ab #2 150 ng/ml, P-IkB Ab #1 600 ng/ml
# [8] = IkB Ab #2 150 ng/ml, P-IkB Ab #1 1200 ng/ml
# [9] = IkB Ab #2 300 ng/ml, P-IkB Ab #1 75 ng/ml
# [10] = IkB Ab #2 300 ng/ml, P-IkB Ab #1 150 ng/ml
# [11] = IkB Ab #2 300 ng/ml, P-IkB Ab #1 300 ng/ml
# [12] = IkB Ab #2 300 ng/ml, P-IkB Ab #1 600 ng/ml
# [13] = IkB Ab #2 300 ng/ml, P-IkB Ab #1 1200 ng/ml
# [14] = IkB Ab #2 600 ng/ml, P-IkB Ab #1 75 ng/ml
# [15] = IkB Ab #2 600 ng/ml, P-IkB Ab #1 150 ng/ml
# [16] = IkB Ab #2 600 ng/ml, P-IkB Ab #1 300 ng/ml
# [17] = IkB Ab #2 600 ng/ml, P-IkB Ab #1 600 ng/ml
# [18] = IkB Ab #2 600 ng/ml, P-IkB Ab #1 1200 ng/ml
# [19] = IkB Ab #2 1200 ng/ml, P-IkB Ab #1 75 ng/ml
# [20] = IkB Ab #2 1200 ng/ml, P-IkB Ab #1 150 ng/ml
# [21] = IkB Ab #2 1200 ng/ml, P-IkB Ab #1 300 ng/ml
# [22] = IkB Ab #2 1200 ng/ml, P-IkB Ab #1 600 ng/ml
# [23] = IkB Ab #2 1200 ng/ml, P-IkB Ab #1 1200 ng/ml
substance,measurement,setting,value
TNFα,Subtract reagent background,"IkB Ab #2 75 ng/ml, P-IkB Ab #1 150 ng/ml",2170
same,Raw data,[1],21130
same,Subtract reagent background,[1],2610
same,Raw data,[2],21060
same,Subtract reagent background,[2],2540
same,Raw data,[3],19400
same,Subtract reagent background,[3],880
same,Raw data,[4],21700
same,Subtract reagent background,[4],3180
same,Raw data,[5],21690
same,Subtract reagent background,[5],3170
same,Raw data,[6],22220
same,Subtract reagent background,[6],3700
same,Raw data,[7],20830
same,Subtract reagent background,[7],2310
same,Raw data,[8],19240
same,Subtract reagent background,[8],720
same,Raw data,[9],22450
same,Subtract reagent background,[9],3930
same,Raw data,[10],22650
same,Subtract reagent background,[10],4130
same,Raw data,[11],23650
same,Subtract reagent background,[11],5130
same,Raw data,[12],20040
same,Subtract reagent background,[12],1520
same,Raw data,[13],19000
same,Subtract reagent background,[13],480
same,Raw data,[14],22640
same,Subtract reagent background,[14],4120
same,Raw data,[15],23720
same,Subtract reagent background,[15],5200
same,Raw data,[16],23520
same,Subtract reagent background,[16],5000
same,Raw data,[17],22360
same,Subtract reagent background,[17],3840
same,Raw data,[18],20110
same,Subtract reagent background,[18],1590
same,Raw data,[19],22600
same,Subtract reagent background,[19],4080
same,Raw data,[20],23950
same,Subtract reagent background,[20],5430
same,Raw data,[21],23940
same,Subtract reagent background,[21],5420
same,Raw data,[22],23180
same,Subtract reagent background,[22],4660
same,Raw data,[23],21820
same,Subtract reagent background,[23],3300
same,Fold change (TNF-treated /Non-treated),"IkB Ab #2 (Mouse) 75 ng/ml, P-IkB Ab #1 (Rabbit) 75 ng/ml",1.212
same,Fold change (TNF-treated /Non-treated),"IkB Ab #2 (Mouse) 75 ng/ml, P-IkB Ab #1 (Rabbit) 75 ng/ml, listed as TNF",1.2
same,Fold change (TNF-treated /Non-treated),"IkB Ab #2 (Mouse) 75 ng/ml, P-IkB Ab #1 (Rabbit) 150 ng/ml",1.09
same,Fold change (TNF-treated /Non-treated),"IkB Ab #2 (Mouse) 75 ng/ml, P-IkB Ab #1 (Rabbit) 150 ng/ml, listed as TNF",1.1
same,Fold change (TNF-treated /Non-treated),"IkB Ab #2 (Mouse) 75 ng/ml, P-IkB Ab #1 (Rabbit) 300 ng/ml",1.197
same,Fold change (TNF-treated /Non-treated),"IkB Ab #2 (Mouse) 75 ng/ml, P-IkB Ab #1 (Rabbit) 300 ng/ml, listed as TNF",1.2
same,Fold change (TNF-treated /Non-treated),"IkB Ab #2 (Mouse) 75 ng/ml, P-IkB Ab #1 (Rabbit) 600 ng/ml",1.104
same,Fold change (TNF-treated /Non-treated),"IkB Ab #2 (Mouse) 75 ng/ml, P-IkB Ab #1 (Rabbit) 1200 ng/ml",0.4356
same,Fold change (TNF-treated /Non-treated),"IkB Ab #2 (Mouse) 150 ng/ml, P-IkB Ab #1 (Rabbit) 150 ng/ml",1.447
same,Fold change (TNF-treated /Non-treated),"IkB Ab #2 (Mouse) 150 ng/ml, P-IkB Ab #1 (Rabbit) 150 ng/ml, listed as TNF",1.4
same,Fold change (TNF-treated /Non-treated),"IkB Ab #2 (Mouse) 150 ng/ml, P-IkB Ab #1 (Rabbit) 300 ng/ml",1.271
same,Fold change (TNF-treated /Non-treated),"IkB Ab #2 (Mouse) 150 ng/ml, P-IkB Ab #1 (Rabbit) 300 ng/ml, listed as TNF",1.3
same,Fold change (TNF-treated /Non-treated),"IkB Ab #2 (Mouse) 150 ng/ml, P-IkB Ab #1 (Rabbit) 600 ng/ml",0.8684
same,Fold change (TNF-treated /Non-treated),"IkB Ab #2 (Mouse) 150 ng/ml, P-IkB Ab #1 (Rabbit) 600 ng/ml, listed as TNF",0.9
same,Fold change (TNF-treated /Non-treated),"IkB Ab #2 (Mouse) 150 ng/ml, P-IkB Ab #1 (Rabbit) 1200 ng/ml",0.2618
same,Fold change (TNF-treated /Non-treated),"IkB Ab #2 (Mouse) 150 ng/ml, P-IkB Ab #1 (Rabbit) 1200 ng/ml, listed as TNF",0.262
same,Fold change (TNF-treated /Non-treated),"IkB Ab #2 (Mouse) 300 ng/ml, P-IkB Ab #1 (Rabbit) 150 ng/ml",1.886
same,Fold change (TNF-treated /Non-treated),"IkB Ab #2 (Mouse) 300 ng/ml, P-IkB Ab #1 (Rabbit) 150 ng/ml, listed as TNF",1.9
same,Fold change (TNF-treated /Non-treated),"IkB Ab #2 (Mouse) 300 ng/ml, P-IkB Ab #1 (Rabbit) 300 ng/ml",2.24
same,Fold change (TNF-treated /Non-treated),"IkB Ab #2 (Mouse) 300 ng/ml, P-IkB Ab #1 (Rabbit) 300 ng/ml, listed as TNF",2.2
same,Fold change (TNF-treated /Non-treated),"IkB Ab #2 (Mouse) 300 ng/ml, P-IkB Ab #1 (Rabbit) 600 ng/ml",1.197
same,Fold change (TNF-treated /Non-treated),"IkB Ab #2 (Mouse) 300 ng/ml, P-IkB Ab #1 (Rabbit) 600 ng/ml, listed as TNF",1.2
same,Fold change (TNF-treated /Non-treated),"IkB Ab #2 (Mouse) 300 ng/ml, P-IkB Ab #1 (Rabbit) 1200 ng/ml",0.3429
same,Fold change (TNF-treated /Non-treated),"IkB Ab #2 (Mouse) 300 ng/ml, P-IkB Ab #1 (Rabbit) 1200 ng/ml, listed as TNF",0.343
same,Fold change (TNF-treated /Non-treated),"IkB Ab #2 (Mouse) 600 ng/ml, P-IkB Ab #1 (Rabbit) 75 ng/ml",2.559
same,Fold change (TNF-treated /Non-treated),"IkB Ab #2 (Mouse) 600 ng/ml, P-IkB Ab #1 (Rabbit) 75 ng/ml, listed as TNF",2.6
same,Fold change (TNF-treated /Non-treated),"IkB Ab #2 (Mouse) 600 ng/ml, P-IkB Ab #1 (Rabbit) 150 ng/ml",2.826
same,Fold change (TNF-treated /Non-treated),"IkB Ab #2 (Mouse) 600 ng/ml, P-IkB Ab #1 (Rabbit) 150 ng/ml, listed as TNF",2.8
same,Fold change (TNF-treated /Non-treated),"IkB Ab #2 (Mouse) 600 ng/ml, P-IkB Ab #1 (Rabbit) 300 ng/ml",2.155
same,Fold change (TNF-treated /Non-treated),"IkB Ab #2 (Mouse) 600 ng/ml, P-IkB Ab #1 (Rabbit) 300 ng/ml, listed as TNF",2.2
same,Fold change (TNF-treated /Non-treated),"IkB Ab #2 (Mouse) 600 ng/ml, P-IkB Ab #1 (Rabbit) 600 ng/ml",2.11
same,Fold change (TNF-treated /Non-treated),"IkB Ab #2 (Mouse) 600 ng/ml, P-IkB Ab #1 (Rabbit) 600 ng/ml, listed as TNF",2.1
same,Fold change (TNF-treated /Non-treated),"IkB Ab #2 (Mouse) 600 ng/ml, P-IkB Ab #1 (Rabbit) 1200 ng/ml",0.8281
